Data published in patent US20240285625A1, “ERK1/2 AND KRAS G12C INHIBITORS COMBINATION THERAPY” (Erasca, Inc., priority 2021, published 2024).

Test: Body weight loss in the CO-04-0310 PDX study
Format: in vivo, Balb/c nude mice
Conditions: CO-04-0310 study; Compound 1 30 mg/kg/dose BID monotherapy; DietGel starting on treatment day 14
Method: Treatment started on the day after randomization. The treatment start day was denoted as treatment day 1. Mice were dosed by oral administration of vehicle control solution or monotherapy treatments of Compound 1 at 30 mg/kg/dose BID or sotorasib at 100 mg/kg QD. An additional group received combination treatment of Compound 1 at 30 mg/kg/dose BID or sotorasib at 100 mg/kg QD. BID was dosed at an 8-hour interval. In the combination group, sotorasib was dosed first and Compound 1 was dosed one hour later. In addition to regular food and water supply. DietGel (Ready Jelly R. 76A. Ready Biotechnology (ShenZhen) Co., Ltd.) was added in cages where at least two mice in a treatment group started showing >10% BWL at any measurement day. DietGel was supplied through the remaining study period after the addition of DietGel. Per this practice, mice in the Compound 1 at 30 mg/kg/dose BID monotherapy treatment group were supplied with DictGel food starting on treatment day 14. The study was terminated on treatment day 28 as defined in the study protocol.

## Cc1cnc(NC2CCOCC2)nc1-n1cnc(C(=O)N[C@H](CN)c2cc(F)cc(Cl)c2)c1 [Compound 1, (S)—N-(2-amino-1-(3-chloro-5-fluorophenyl)ethyl)-1-(5-methyl-2-((tetrahydro-2H-pyran-4-yl)amino)pyrimidin-4-yl)-1H-imidazole-4-carboxamide]
  BWL (at least two mice in treatment group; DietGel supplied): > 10%
